What all share (assay): Kinase inhibitor specificity profiling (Reaction Biology Corporation)
What all share (type): biochemical
Design in all cases: % Enzyme Activity (relative to DMSO controls): concentration or dose not given beside the values

Assay [1] deals with T1, panel of 370 protein kinases (Homo sapiens, UniProt P06239).
T1 construct: purchased Reaction Biology Corporation (assay service)
The conditions noted are these: 2 h, kinase LCK; read-out: % Enzyme Activity (relative to DMSO controls).

Assay [2] has as its target T2, panel of 370 protein kinases (Homo sapiens, UniProt Q9H0K1).
T2 construct: purchased Reaction Biology Corporation (assay service)
The conditions noted are these: 2 h, kinase SIK2; read-out: % Enzyme Activity (relative to DMSO controls).

For assay [3], the target named is T3, panel of 370 protein kinases (Homo sapiens, UniProt Q8TF76).
T3 construct: purchased Reaction Biology Corporation (assay service)
Conditions: 2 h, kinase Haspin; read-out: % Enzyme Activity (relative to DMSO controls).

Assay [4] concerns the target T4, panel of 370 protein kinases (Homo sapiens, UniProt O94921).
T4 construct: purchased Reaction Biology Corporation (assay service)
The conditions noted are these: kinase CDK14/cyclin Y (PFTK1).

Assay [5] deals with T5, panel of 370 protein kinases (Homo sapiens, UniProt Q32MK0).
T5 construct: purchased Reaction Biology Corporation (assay service)
The conditions noted are these: 2 h, kinase MYLK3; read-out: % Enzyme Activity (relative to DMSO controls).

In assay [6] the target is T6, panel of 370 protein kinases (Homo sapiens, UniProt P34947).
T6 construct: purchased Reaction Biology Corporation (assay service)
The conditions noted are these: 2 h, kinase GRK5; read-out: % Enzyme Activity (relative to DMSO controls).

Assay [7] addresses T7, panel of 370 protein kinases (Homo sapiens, UniProt Q16512).
T7 construct: purchased Reaction Biology Corporation (assay service)
The conditions noted are these: 2 h, kinase PKN1/PRK1; read-out: % Enzyme Activity (relative to DMSO controls).

The target of assay [8] is T8, panel of 370 protein kinases (Homo sapiens, UniProt Q05655).
T8 construct: purchased Reaction Biology Corporation (assay service)
Conditions: 2 h, kinase PKCd; read-out: % Enzyme Activity (relative to DMSO controls).

Assay [9] addresses T9, panel of 370 protein kinases (Homo sapiens, UniProt O95835).
T9 construct: purchased Reaction Biology Corporation (assay service)
Conditions: 2 h, kinase LATS1; read-out: % Enzyme Activity (relative to DMSO controls).

Assay [10] has as its target T10, panel of 370 protein kinases (Homo sapiens, UniProt Q15831).
T10 construct: purchased Reaction Biology Corporation (assay service)
The conditions noted are these: 2 h, kinase LKB1; read-out: % Enzyme Activity (relative to DMSO controls).

The target in assay [11] is T11, panel of 370 protein kinases (Homo sapiens, UniProt P48730).
T11 construct: purchased Reaction Biology Corporation (assay service)
The conditions noted are these: 2 h, kinase CK1d; read-out: % Enzyme Activity (relative to DMSO controls).

The target in assay [12] is T12, panel of 370 protein kinases (Homo sapiens, UniProt Q15418).
T12 construct: purchased Reaction Biology Corporation (assay service)
Conditions: 2 h, kinase RSK1; read-out: % Enzyme Activity (relative to DMSO controls).

The target in assay [13] is T13, panel of 370 protein kinases (Homo sapiens, UniProt O75116).
T13 construct: purchased Reaction Biology Corporation (assay service)
Conditions: 2 h, kinase ROCK2; read-out: % Enzyme Activity (relative to DMSO controls).

In assay [14] the target is T14, panel of 370 protein kinases (Homo sapiens, UniProt P05771).
T14 construct: purchased Reaction Biology Corporation (assay service)
The conditions noted are these: 2 h, kinase PKCb1; read-out: % Enzyme Activity (relative to DMSO controls).

The target in assay [15] is T15, panel of 370 protein kinases (Homo sapiens, UniProt P21709).
T15 construct: purchased Reaction Biology Corporation (assay service)
Conditions: 2 h, kinase EPHA1; read-out: % Enzyme Activity (relative to DMSO controls).

The target in assay [16] is T16, panel of 370 protein kinases (Homo sapiens, UniProt P11802).
T16 construct: purchased Reaction Biology Corporation (assay service)
The conditions noted are these: 2 h, read-out: % Enzyme Activity (relative to DMSO controls).

The target of assay [17] is T17, panel of 370 protein kinases (Homo sapiens, UniProt Q6XUX3).
T17 construct: purchased Reaction Biology Corporation (assay service)
The conditions noted are these: 2 h, kinase RIPK5; read-out: % Enzyme Activity (relative to DMSO controls).

The target of assay [18] is T18, panel of 370 protein kinases (Homo sapiens, UniProt P35968).
T18 construct: purchased Reaction Biology Corporation (assay service)
Conditions: 2 h, kinase KDR/VEGFR2; read-out: % Enzyme Activity (relative to DMSO controls).

Assay [19] deals with T19, panel of 370 protein kinases (Homo sapiens, UniProt Q7L7X3).
T19 construct: purchased Reaction Biology Corporation (assay service)
Conditions: 2 h, kinase TAOK1; read-out: % Enzyme Activity (relative to DMSO controls).

Assay [20] has as its target T20, panel of 370 protein kinases (Homo sapiens, UniProt P29323).
T20 construct: purchased Reaction Biology Corporation (assay service)
The conditions noted are these: kinase EPHB2.

The target of assay [21] is T21, panel of 370 protein kinases (Homo sapiens, UniProt Q06418).
T21 construct: purchased Reaction Biology Corporation (assay service)
Conditions: 2 h, kinase TYRO3/SKY; read-out: % Enzyme Activity (relative to DMSO controls).

Consider 1 molecule from article PMC9133015 (Nature Communications, 2022).

Values joined by “and” are separate entries in the source; they are usually repeats but may differ in a detail not shown here. Equal values may be shown once. Read-outs that look alike come from different tables or passages of the source.

T4 sequence (O94921 whole entry): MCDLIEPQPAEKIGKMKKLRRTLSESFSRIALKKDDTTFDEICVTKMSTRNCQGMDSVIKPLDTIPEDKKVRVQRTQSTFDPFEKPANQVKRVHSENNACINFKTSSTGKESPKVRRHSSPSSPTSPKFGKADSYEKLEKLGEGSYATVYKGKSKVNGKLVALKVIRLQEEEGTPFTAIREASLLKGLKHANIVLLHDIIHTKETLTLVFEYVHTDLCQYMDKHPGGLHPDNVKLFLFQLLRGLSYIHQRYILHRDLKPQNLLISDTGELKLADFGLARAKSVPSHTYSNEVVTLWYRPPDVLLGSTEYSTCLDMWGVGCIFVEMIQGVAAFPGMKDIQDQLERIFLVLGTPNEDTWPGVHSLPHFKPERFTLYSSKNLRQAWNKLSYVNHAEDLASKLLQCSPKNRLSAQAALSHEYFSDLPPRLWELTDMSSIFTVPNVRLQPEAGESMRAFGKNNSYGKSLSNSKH
T16 sequence (P11802 whole entry): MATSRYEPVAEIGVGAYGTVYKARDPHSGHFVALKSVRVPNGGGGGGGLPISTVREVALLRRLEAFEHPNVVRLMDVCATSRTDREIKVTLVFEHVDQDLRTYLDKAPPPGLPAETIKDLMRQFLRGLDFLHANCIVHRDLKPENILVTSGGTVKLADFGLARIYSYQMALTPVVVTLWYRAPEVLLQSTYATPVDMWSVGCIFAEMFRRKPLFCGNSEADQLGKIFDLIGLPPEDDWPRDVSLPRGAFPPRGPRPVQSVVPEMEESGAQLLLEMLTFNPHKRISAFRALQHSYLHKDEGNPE
T20 sequence (P29323 19-1055): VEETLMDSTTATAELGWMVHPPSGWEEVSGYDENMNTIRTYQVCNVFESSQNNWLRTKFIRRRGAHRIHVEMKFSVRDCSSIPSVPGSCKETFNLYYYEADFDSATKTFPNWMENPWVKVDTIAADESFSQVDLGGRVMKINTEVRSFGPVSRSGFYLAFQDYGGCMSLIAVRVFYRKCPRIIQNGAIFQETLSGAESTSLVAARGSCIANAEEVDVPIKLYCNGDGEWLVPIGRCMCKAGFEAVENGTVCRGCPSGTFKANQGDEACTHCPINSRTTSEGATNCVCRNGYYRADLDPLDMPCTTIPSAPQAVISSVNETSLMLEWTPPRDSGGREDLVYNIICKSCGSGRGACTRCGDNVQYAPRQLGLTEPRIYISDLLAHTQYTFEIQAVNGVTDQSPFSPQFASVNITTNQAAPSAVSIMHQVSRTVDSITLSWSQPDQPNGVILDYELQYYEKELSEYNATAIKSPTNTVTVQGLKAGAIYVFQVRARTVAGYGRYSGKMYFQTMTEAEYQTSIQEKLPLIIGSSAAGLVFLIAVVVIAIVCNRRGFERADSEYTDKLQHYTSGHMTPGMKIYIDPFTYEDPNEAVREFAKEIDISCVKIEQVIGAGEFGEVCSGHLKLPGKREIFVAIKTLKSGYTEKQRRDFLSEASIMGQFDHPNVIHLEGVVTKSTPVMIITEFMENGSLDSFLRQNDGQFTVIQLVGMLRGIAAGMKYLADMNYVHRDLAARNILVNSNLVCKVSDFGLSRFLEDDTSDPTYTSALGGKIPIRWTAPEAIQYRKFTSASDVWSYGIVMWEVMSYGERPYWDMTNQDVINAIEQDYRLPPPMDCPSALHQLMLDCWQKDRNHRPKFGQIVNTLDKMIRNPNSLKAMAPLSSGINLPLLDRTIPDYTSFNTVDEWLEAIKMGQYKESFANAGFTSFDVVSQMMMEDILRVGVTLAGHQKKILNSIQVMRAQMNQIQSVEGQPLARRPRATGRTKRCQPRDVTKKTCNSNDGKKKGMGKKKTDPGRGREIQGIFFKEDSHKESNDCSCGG
T14 sequence (P05771 whole entry): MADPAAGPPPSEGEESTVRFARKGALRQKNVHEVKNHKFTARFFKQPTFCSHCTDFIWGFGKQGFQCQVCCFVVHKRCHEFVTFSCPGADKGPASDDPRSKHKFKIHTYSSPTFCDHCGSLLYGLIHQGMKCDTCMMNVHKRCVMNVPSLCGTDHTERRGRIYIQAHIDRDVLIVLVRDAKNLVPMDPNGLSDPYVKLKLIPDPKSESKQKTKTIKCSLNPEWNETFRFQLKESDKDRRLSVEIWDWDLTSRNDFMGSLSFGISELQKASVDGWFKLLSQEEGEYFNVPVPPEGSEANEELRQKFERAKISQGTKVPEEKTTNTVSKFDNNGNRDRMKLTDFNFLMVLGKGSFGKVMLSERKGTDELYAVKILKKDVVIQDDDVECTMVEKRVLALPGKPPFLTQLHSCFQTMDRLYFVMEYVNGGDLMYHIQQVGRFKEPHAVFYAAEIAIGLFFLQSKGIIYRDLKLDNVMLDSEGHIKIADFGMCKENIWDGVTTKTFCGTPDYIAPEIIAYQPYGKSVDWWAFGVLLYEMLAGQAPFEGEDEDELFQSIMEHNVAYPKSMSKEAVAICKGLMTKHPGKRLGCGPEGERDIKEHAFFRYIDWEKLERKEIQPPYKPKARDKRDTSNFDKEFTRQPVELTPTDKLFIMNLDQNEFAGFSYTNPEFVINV
T2 sequence (Q9H0K1 whole entry): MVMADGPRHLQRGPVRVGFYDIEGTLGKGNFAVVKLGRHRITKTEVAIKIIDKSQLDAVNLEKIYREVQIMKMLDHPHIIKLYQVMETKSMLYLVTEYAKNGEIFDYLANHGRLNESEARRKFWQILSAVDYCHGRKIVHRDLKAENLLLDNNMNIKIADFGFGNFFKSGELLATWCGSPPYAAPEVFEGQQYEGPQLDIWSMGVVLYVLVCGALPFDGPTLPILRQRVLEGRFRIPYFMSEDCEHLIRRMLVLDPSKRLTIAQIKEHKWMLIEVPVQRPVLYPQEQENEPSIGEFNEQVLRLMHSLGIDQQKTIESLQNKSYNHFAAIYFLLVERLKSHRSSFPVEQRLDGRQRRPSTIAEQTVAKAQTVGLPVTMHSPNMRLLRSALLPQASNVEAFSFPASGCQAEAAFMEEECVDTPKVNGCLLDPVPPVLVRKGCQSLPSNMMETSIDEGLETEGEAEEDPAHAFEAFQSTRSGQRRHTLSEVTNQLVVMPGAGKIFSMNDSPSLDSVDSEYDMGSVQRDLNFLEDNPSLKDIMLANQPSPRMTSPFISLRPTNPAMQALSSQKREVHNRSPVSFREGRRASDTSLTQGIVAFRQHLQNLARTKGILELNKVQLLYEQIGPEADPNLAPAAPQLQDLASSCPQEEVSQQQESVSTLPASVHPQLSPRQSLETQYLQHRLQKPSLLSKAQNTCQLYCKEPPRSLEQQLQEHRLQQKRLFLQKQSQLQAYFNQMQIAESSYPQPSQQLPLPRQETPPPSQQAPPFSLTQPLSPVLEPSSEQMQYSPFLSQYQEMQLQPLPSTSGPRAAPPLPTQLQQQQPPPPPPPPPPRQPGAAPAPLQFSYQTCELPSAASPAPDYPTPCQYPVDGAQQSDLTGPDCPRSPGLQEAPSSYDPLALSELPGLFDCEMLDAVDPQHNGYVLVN
T6 sequence (P34947 whole entry): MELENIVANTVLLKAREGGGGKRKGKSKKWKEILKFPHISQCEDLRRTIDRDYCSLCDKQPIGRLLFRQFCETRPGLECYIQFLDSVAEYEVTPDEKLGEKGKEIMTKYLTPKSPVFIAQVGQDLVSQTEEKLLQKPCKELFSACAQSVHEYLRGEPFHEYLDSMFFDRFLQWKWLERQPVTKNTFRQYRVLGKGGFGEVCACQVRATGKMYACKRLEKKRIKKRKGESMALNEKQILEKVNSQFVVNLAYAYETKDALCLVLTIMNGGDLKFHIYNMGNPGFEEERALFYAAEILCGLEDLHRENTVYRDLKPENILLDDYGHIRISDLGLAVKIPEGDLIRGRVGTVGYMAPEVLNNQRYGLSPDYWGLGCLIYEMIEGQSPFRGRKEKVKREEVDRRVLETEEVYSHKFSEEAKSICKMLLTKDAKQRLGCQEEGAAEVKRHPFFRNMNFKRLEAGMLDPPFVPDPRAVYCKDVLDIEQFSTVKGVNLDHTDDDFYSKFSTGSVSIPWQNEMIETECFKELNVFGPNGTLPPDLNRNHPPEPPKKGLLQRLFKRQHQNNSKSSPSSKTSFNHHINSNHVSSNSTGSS
T11 sequence (P48730 whole entry): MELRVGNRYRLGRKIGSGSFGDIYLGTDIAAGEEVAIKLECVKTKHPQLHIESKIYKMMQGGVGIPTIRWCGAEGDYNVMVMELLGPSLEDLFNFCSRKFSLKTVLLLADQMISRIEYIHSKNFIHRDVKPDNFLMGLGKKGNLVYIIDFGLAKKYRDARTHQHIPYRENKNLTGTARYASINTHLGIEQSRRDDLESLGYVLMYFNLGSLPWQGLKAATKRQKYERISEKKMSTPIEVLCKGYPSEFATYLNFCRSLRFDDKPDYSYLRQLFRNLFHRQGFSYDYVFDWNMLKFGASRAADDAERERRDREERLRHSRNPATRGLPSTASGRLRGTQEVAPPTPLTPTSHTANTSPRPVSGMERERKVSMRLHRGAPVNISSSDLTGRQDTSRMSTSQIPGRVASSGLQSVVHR
T1 sequence (P06239 whole entry): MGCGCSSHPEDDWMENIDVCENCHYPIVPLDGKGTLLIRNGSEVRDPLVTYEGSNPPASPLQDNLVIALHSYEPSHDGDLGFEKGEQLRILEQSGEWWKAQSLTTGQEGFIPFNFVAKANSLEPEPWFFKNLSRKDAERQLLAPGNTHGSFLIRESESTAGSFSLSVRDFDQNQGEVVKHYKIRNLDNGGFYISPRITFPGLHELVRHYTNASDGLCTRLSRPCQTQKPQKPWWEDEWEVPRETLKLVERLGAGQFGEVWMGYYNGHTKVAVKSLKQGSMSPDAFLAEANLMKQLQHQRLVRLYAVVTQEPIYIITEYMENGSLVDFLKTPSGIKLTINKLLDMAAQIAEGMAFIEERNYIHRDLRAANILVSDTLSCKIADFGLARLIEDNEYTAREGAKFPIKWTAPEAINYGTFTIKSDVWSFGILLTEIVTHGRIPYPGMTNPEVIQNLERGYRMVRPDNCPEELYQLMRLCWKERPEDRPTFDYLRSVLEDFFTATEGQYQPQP

Consider `CCN1CCN(C(=O)c2ccc(Nc3ncc(F)c(-c4ccc5nc(N(C)C)sc5c4)n3)nc2)CC1` [YK-2-69], for which the remaining activity at 1 µM in assay [1] was 101%; in assay [2] it was 95.6%; in assay [3], 99%; in assay [5] it was 85.9%; in [6], 106%; in [7], 75.7%. Also, the remaining activity at 1 µM turned out to be 70.9% in [8]; 95.2% in assay [9]; 111% in assay [10]; 104% in [11]; 102% in assay [12]; 93.2% in assay [13]. For the same molecule, the remaining activity at 1 µM in [14] was 101%; in assay [15], 109%; in assay [16] (kinase CDK4/cyclin D1), 6.13%; in [16] (kinase CDK4/cyclin D3), 11.2%; in [17], 111%; in assay [18], 88.6%. Moreover, the values for the remaining activity at 1 µM in assay [19] and in [21] were 108% and 96.6%, respectively. Besides, the “% Enzyme Activity (relative to DMSO controls)” value is 116.35% and 115.11% in [4]; 102.42% and 102.08% in assay [20].
